Results from patent US20200131227A1, “POLYPEPTIDE WITH TUMOUR BINDING ACTIVITY” (RUPRECHT-KARLS-UNIVERSITÄT HEIDELBERG, priority 2017, published 2020).
Where a SMILES comes first, the peptide text is derived from it. Bridges are numbered along the chain shown (N, C = ends). The star is where a group is joined. DOTA = O=C(O)CN1CCN(CC(=O)O)CCN(CC(=O)*)CCN(CC(=O)O)CC1

Experiments:
[1] = system: brain metastases derived from breast cancer and NSCLC; experiment: Histochemical peptide staining of brain metastases; set-up: species or system human
Procedure: Staining with the biotinylated PEG(12)-SFITGv6 peptide was performed on acetone-fixed cryosections (5 μm) of tumor tissues after blocking of unspecific binding using the Avidin/Biotin Blocking Kit (SP-2001, Vector Laboratories). A stock solution of the lyophilized peptide was prepared by dilution in 5% aqueous DMSO. Slices were incubated overnight at 4° C. with 10^-5 M peptide concentration in antibody diluent (DAKO). Detection of bound peptide was carried out with the Vectastain Elite ABC Kit (PK-6100, Vector Laboratories) according to manufacturer's protocol. Peptide specificity was ensured by a scrambled (GRD) PEG(12)-SFITGv6 derivate, the somatostatin receptor ligand DOTATOC and negative controls (without peptide or primary antibody) Staining results were assessed by bright field microscopy (BX50) with the SC30 camera and the cell Sense software (all Olympus).

HNO97 cells = experiment: In vitro binding, kinetics, internalization and efflux on HNO97 cells; assay type: cell-based, human
Procedure: For binding studies, 2.5×10^5 to 4×10^5 cells were seeded in 6-well plates and cultivated for 48 hours. Cells were incubated for 60 min with 1 mL serum-free medium containing the ^125I-labeled peptide (see above). For competition experiments, cells were simultaneously exposed to unlabeled (10^-4 M to 10^-10 M) and ^125I-labeled peptides. After three washing steps with PBS (pH 7.4) the cells were lysed with 0.5 mL of 0.3 M NaOH. Experiments concerning the internalization, kinetics and efflux were additionally performed with ^177Lu-DOTA-SFITGv6. To evaluate kinetics and efflux HNO97 cells were incubated for different time intervals (10 min to 480 min) and 60 min, respectively, with ^177Lu-DOTA-SFITGv6 and lysed as described. To continue with the efflux experiment radioactive medium was replaced by non-radioactive medium and cells were incubated again for 60 to 240 min before measuring radioactivity of the cell lysates and the medium. For internalization experiments the cells were exposed to ^177Lu-DOTA-SFITGv6 for different time intervals (10 to 240 min) at 37° C. and 4° C. After three washing steps with PBS the cells were incubated with 1 mL of glycine-HCl 50 mmol/L in PBS (pH 2.8) for 10 min at RT to remove the surface bound activity. Then, cells were washed with 3 mL of ice-cold PBS and lysed as described. Radioactivity was determined in a gamma counter and calculated as percentage of the applied dose per 1×10^6 cells. Experiments were performed three times, and three repetitions per independent experiment were acquired.
(§1) For the assessment of the peptide binding capacity in vitro, 2.5-4×10^5 cells were seeded into 6-well plates and cultivated for 48 h. ^125I-labeled peptide resuspended in 1 mL serum-free medium was added and incubated for either 10 min or 60 min with or without different concentrations of unlabeled peptide (10^−4-10^−11 M). Afterwards, cell monolayers were washed three times with 1 mL phosphate-buffered saline (pH 7.4) to remove unbound peptide and the cells were harvested with 1.4 mL lysis buffer (0.3 M NaOH). To evaluate kinetic properties the cells were exposed to ^177Lu-DOTA-labeled peptides for 10, 30, 60, 120, and 240 min, respectively, and lysed as described. For the efflux experiments the cells were incubated with ^177Lu-DOTA-labeled peptides for 60 min. Thereafter, radioactive medium was replaced by non-radioactive medium and cell monolayers were incubated for additional 60, 120, and 240 min and afterwards lysed as described earlier. The internalization was assessed after exposure of the cells to ^177Lu-DOTA-labeled peptides for 10, 30, 60, 120, and 240 min at 37° C. Unspecifically bound peptide was removed from the surface by incubation with 1 M glycine-HCl solution (pH 2.2) for 10 min. The monolayer cell was rinsed with PBS and cells were lysed as described before. Radioactivity was determined in a y-counter and calculated as percentage of the applied dose per 1×10^6 cells. Experiments were performed three times, and three repetitions per independent experiment were acquired.

HNO399 cells = experiment: In vitro binding on HNO399 cells; assay type: cell-based, human; details: Example 2, 10 min to 480 min (FIG. 16)
Procedure: as §1, with “To evaluate kinetic properties the cells were exposed to ^177Lu-DOTA-labeled peptides for 10, 30, 60, 120, and 240 min, respectively, and lysed as described.” left out, “The internalization was assessed after exposure of the cells to ^177Lu-DOTA-labeled peptides for 10, 30, 60, 120, and 240 min at 37° C.” left out

[2] = system: metastasized pancreatic cancer; experiment: PET/CT and scintigraphy of pancreatic cancer patient; assay type: in vivo, human; details: 1 day after 6.5 GBq
Procedure: (§2) PET/CT scans of tumor patients and body scintigraphy were performed as described in Example 1.

[3] = Biodistribution, Capan-2 xenografts; assay type: in vivo, mice; details: Balb/c nude, mouse, tumor (Capan-2 xenograft), iv, 1 MBq, total radioactivity; after 1 hour (highest)
Procedure: 6 to 8 week old Balb c/c nude mice (Charles River Lab.) were inoculated with 5*10^6 Capan-2 cells in 100 μl Opti-MEM medium. After 4 to 6 weeks the tumor has grown 10-15 mm in diameter. For small animal PET imaging 25 MBq of the ^68Ga-labeled peptide (2 nmol) was injected into the tail vein.
For biodistribution assays 1 MBq of ^177Lu-labeled peptide was injected into the tail vein of each mouse. After different time points each animal was sacrificed. Peripheral blood, spleen, liver, intestine, kidney, heart, lung, brain, muscle, and tumor were removed and weighted. Radioactivity was measured in a gamma counter and expressed as injected dose per gram (% ID/g).

ovarian cancer = experiment: Scintigraphy of ovarian cancer patients; assay type: in vivo, human; details: 1 day after 6 GBq and 7.4 GBq
Procedure: as §2

HNO223 cells = experiment: In vitro binding on HNO223 cells; assay type: cell-based, human; details: Example 2, 10 min to 480 min (FIG. 16)
Procedure: For binding studies, 2.5×10^5 to 4×10^5 cells were seeded in 6-well plates and cultivated for 48 hours. Cells were incubated for 60 min with 1 mL serum-free medium containing the ^125I-labeled peptide (see above). For competition experiments, cells were simultaneously exposed to unlabeled (10^-4 M to 10^-10 M) and ^125I-labeled peptides. After three washing steps with PBS (pH 7.4) the cells were lysed with 0.5 mL of 0.3 M NaOH. Experiments concerning the internalization, kinetics and efflux were additionally performed with ^177Lu-DOTA-SFITGv6. […] To continue with the efflux experiment radioactive medium was replaced by non-radioactive medium and cells were incubated again for 60 to 240 min before measuring radioactivity of the cell lysates and the medium. […] Radioactivity was determined in a gamma counter and calculated as percentage of the applied dose per 1×10^6 cells. […]
For the assessment of the peptide binding capacity in vitro, 2.5-4×10^5 cells were seeded into 6-well plates and cultivated for 48 h. ^125I-labeled peptide resuspended in 1 mL serum-free medium was added and incubated for either 10 min or 60 min with or without different concentrations of unlabeled peptide (10^−4-10^−11 M). […] The internalization was assessed after exposure of the cells to ^177Lu-DOTA-labeled peptides for 10, 30, 60, 120, and 240 min at 37° C. […]

SMILES	histochemical peptide staining result ([1]; breast cancer BM (NCH640k))	histochemical peptide staining result ([1]; lung BM (NCH2407))	internalization (HNO97 cells; % of the total bound peptide, Example 2, within 60 min)	maximum binding capacity of ^177Lu-DOTA-labeled peptide (kinetics) (HNO97 cells; Example 2, 10 min to 480 min (FIG. 16))	total bound ^177Lu-DOTA-labeled peptide (internalization experiment) (HNO97 cells; Example 2, FIG. 17A, B)	maximum binding capacity of ^177Lu-DOTA-labeled peptide (kinetics) (HNO399 cells)	scintigraphic accumulation [2]	tissue uptake at 1 h [3]	scintigraphic accumulation (ovarian cancer)	maximum binding capacity of ^177Lu-DOTA-labeled peptide (kinetics) (HNO223 cells)
CSCC[C@@H]1NC(=O)[C@H](CC(C)C)NC(=O)[C@H](CC(=O)O)NC(=O)CNC(=O)[C@H](CCCNC(=N)N)NC(=O)[C@H](Cc2ccccc2)NC(=O)[C@H]([C@@H](C)O)NC(=O)[C@@H](NC(=O)[C@H](CCCNC(=N)N)NC(=O)CN)CSSC[C@@H](C(=O)N[C@@H](Cc2ccc(O)cc2)C(=O)N2CCC[C@H]2C(=O)N[C@@H](CC(=O)O)C(=O)O)NC(=O)[C@H](CC(C)C)NC(=O)[C@H](CCC(N)=O)NC1=O [SFITGv6, NH2-G-R-C1-T-F-R-G-D-L-M-Q-L-C1-Y-P-D-COOH] (H-GRCTFRGDLMQLCYPD-OH; disulfide 3-13)	moderate but distinct tumor cell staining	very strong tumor-specific staining pattern								
CC(C)C[C@@H]1NC(=O)[C@H](CC(=O)O)NC(=O)CNC(=O)[C@H](CCCNC(=N)N)NC(=O)CNC(=O)[C@H]([C@@H](C)O)NC(=O)[C@@H](NC(=O)[C@H](CCCNC(=N)N)NC(=O)CNC(=O)CN2CCN(CC(=O)O)CCN(CC(=O)O)CCN(CC(=O)O)CC2)CSSC[C@@H](C(=O)N[C@@H](Cc2ccc(O)cc2)C(=O)N2CCC[C@H]2C(=O)N[C@@H](CC(=O)O)C(N)=O)NC(=O)[C@H](CC(C)C)NC(=O)[C@H](CCCNC(=N)N)NC(=O)CNC1=O [^177Lu-DOTA-SFLAP3, metal not drawn] ({DOTA}-GRCTGRGDLGRLCYPD-NH2; disulfide 3-13; N-terminus and C-terminus assumed)			60%	18.5%	11.14%	4.31%	accumulation in the metastatic sites	4 %ID/g	moderate to good accumulation in the metastases	9.66%
